Read-outs that look alike come from different tables or passages of the source.
Columns and labels:
Huh-7 cell line = assay: Huh-7 cell confluency by alamarBlue assay during hepatic-stage test; type: cell-based
Method: (§1) Activity against the hepatic stage of P. berghei infection was assessed using the human hepatoma cell line Huh-7 (deposited at the Japanese Collection of Research Bioresources under JCRB0403). The protocol was previously comprehensively described by Prudêncio et al. and by Ploemen et al.. Briefly, cell culture medium consisted of 1640 RPMI medium supplemented with 10% v/v fetal calf serum, 1% v/v L-glutamine, 1% v/v nonessential amino acids, 1% v/v penicillin/streptomycin, and 10 mM HEPES, pH 7. Cells were seeded in 96-well plates at a density of 1 × 10^4 cells per well in 100 µL of culture medium and incubated at 37 °C with 5% CO2 for approximately 18 h. […] The culture medium was substituted by infection medium with diluted compounds 1 hour in advance of infection. Luciferase-expressing P. berghei sporozoites (PbA-LuciGFPcon spz) were freshly obtained through the dissection of salivary glands from infected female Anopheles stephensi mosquitoes. Sporozoites were added to the cells at 1:1 ratio, i.e., 1 × 10^4 sporozoites were added per well, and then subjected to centrifugation at 1800× g for 5 min. The plate was then incubated for 46 h at 37 °C with 5% CO2, at which time Huh-7 cell confluency was indirectly assessed by the alamarBlue assay (Invitrogen, Waltham, MA, USA), as reported in the manufacturer’s protocol. Parasite load was assessed 48 h post-infection by a bioluminescence assay, as reported by the manufacturer (Biotium, Fremont, CA, USA). GraphPad Prism 8 (GraphPad Software, Inc., La Jolla, CA, USA) was used to obtain IC50 values using nonlinear regression analysis to fit the dose-response curves normalized results.

HepG2 cells = assay: Cytotoxicity assessment in vitro (MTT assay); type: cell-based
Method: (§2) HepG2 cells of human hepatocellular carcinoma (ATCC HB-8065; passage 20–25), purchased from Health Protection Agency Culture Collections (ECACC, Salisbury, UK), were cultured in Minimum Essential Medium Eagle supplemented with 10% v/v fetal bovine serum and 1% v/v L-glutamine solution (Sigma-Aldrich, St. Louis, MO, USA) at 37 °C in a humidified atmosphere containing 5% CO2. For passaging, the cells were treated with trypsin/EDTA (Sigma-Aldrich, St. Louis, MO, USA) at 37 °C and then harvested. For the cytotoxicity evaluation, the cells treated with the test substances were used, while untreated HepG2 cells served as a control group. The cells were seeded in a 96-well plate at a density of 1 × 10^4 cells per well and incubated for 24 h. All tested compounds were dissolved in DMSO to prepare 10 mM stock solutions and diluted to the desired concentration just before the cell treatment. Cytotoxicity of all studied derivatives was screened at 10 μM concentration, and all samples were measured in triplicates. Positive and negative controls were also included. Plates were incubated for 24 h in a humidified atmosphere containing 5% CO2 at 37 °C. After the incubation, a solution of thiazolyl blue tetrazolium bromide (Sigma-Aldrich, St. Louis, MO, USA) in RPMI 1640 medium without phenol red (BioTech, Prague, Czech Republic) was added and incubated for 3 h in a humidified atmosphere containing 5% CO2 at 37 °C. Afterwards, formazan crystals were dissolved in DMSO, and the absorbance of samples was recorded at 570 nm (Synergy Neo2 Multi-Mode Reader NEO2SMALPHAB; BioTek, Winooski, VT, USA).

[1] = Cytotoxicity assessment in vitro (MTT assay); type: cell-based; details: human
Method: as §2

[2] = system: hepatic stage of P. berghei; assay: In vitro activity against P. berghei hepatic stages (luciferase-expressing sporozoites in Huh-7 cells, bioluminescence); type: cell-based, Plasmodium berghei; parameters: INFECTION (IC50 determination): unit not given here; details: for activity at 1 µM / activity at 10 µM / IC50: Plasmodium berghei; for activity at 1 µM / activity at 10 µM: Huh-7, 48 h, read-out: INFECTION Ø screening; for activity at 1 µM / activity at 10 µM / INFECTION (IC50 determination): DMSO = 100
Method: as §1, with “Briefly, cell culture medium consisted of 1640 RPMI medium supplemented with 10% v/v fetal calf serum, 1% v/v L-glutamine, 1% v/v nonessential amino acids, 1% v/v penicillin/streptomycin, and 10 mM HEPES, pH 7.” left out

[3] = at 1 μM, DMSO = 100, in % (unit assumed)
[4] = at 10 μM, DMSO = 100, in % (unit assumed)
[5] = c = 10 µM, 24 h, MTT, read-out: HepG2 % of cell viability compared to non-treated control (100%)
[6] = Huh-7, replicate 1, unit (Table 1: µM), read-out: Antiplasmodial activity - IC50 determination, 1. measurement
[7] = Huh-7, replicate 2, unit (Table 1: µM), read-out: Antiplasmodial activity - IC50 determination, 2. measurement
[8] = Huh-7, replicate 3, unit (Table 1: µM), read-out: Antiplasmodial activity - IC50 determination, 3. measurement
[9] = hepatic stage, Huh-7 cells, parasite load 48 h post-infection, read-out: IC50 P. berghei

SMILES | CELL CONFLUENCY Ø screening (Huh-7 cell line; [3]) | CELL CONFLUENCY Ø screening (Huh-7 cell line; [4]) | Ø screening, HepG2 (sheet Graphs) (HepG2 cells; c = 10 μM, DMSO = 100, in %) | 1. screening of cytotoxic potential, HepG2 cell line (HepG2 cells; c = 10 μM, replicate 1, in %) | 2. screening of cytotoxic potential, HepG2 cell line (HepG2 cells; c = 10 μM, replicate 2, in %) | 3. screening of cytotoxic potential, HepG2 cell line (HepG2 cells; c = 10 μM, replicate 3, in %) | viability at 24 h, 10 µM [1, 5] [%] | activity at 1 µM [2] [%] | activity at 10 µM [2] [%] | IC50 [2, 6] [µM] | IC50 [2, 7] [µM] | IC50 [2, 8] [µM] | IC50 [2, 9] [µM] | CELL CONFLUENCY Ø screening (Huh-7 cell line; human, 46 h, 1 µM, pH 7) | CELL CONFLUENCY Ø screening (Huh-7 cell line; human, 46 h, 10 µM, pH 7) | 1. screening of cytotoxic potential, HepG2 cell line (HepG2 cells; human, 24 h, 10 µM) | 2. screening of cytotoxic potential, HepG2 cell line (HepG2 cells; human, 24 h, 10 µM) | 3. screening of cytotoxic potential, HepG2 cell line (HepG2 cells; human, 24 h, 10 µM) | Ø screening, HepG2 (sheet Graphs) (HepG2 cells; human, 24 h, 10 µM) | viability at 24 h, 10 µM [1] [%] | also measured
COc1cccc(C(=O)O[C@@H]2CN3Cc4c(cc5c(c4OC)OCO5)[C@@]24C=C[C@H](OC)C[C@@H]34)c1 [28j, 11-O-(3-Methoxybenzoyl)ambelline] | 109.9 | 81.02 | 80.77 | 69.18 | 85.98 | 87.15 | 81 ± 10 | 10.8 | 0.612 | 0.19 | 0.362 | 0.232 | 0.261 ± 0.09 |  |  |  |  |  |  |  | 
COc1ccccc1C(=O)O[C@@H]1CN2Cc3c(cc4c(c3OC)OCO4)[C@@]13C=C[C@H](OC)C[C@@H]23 [28i, 11-O-(2-Methoxybenzoyl)ambelline] |  |  |  |  |  |  |  | 60.6 | 1.65 | 1.53 | 2.98 | 2.7 | 2.4 ± 0.77 | 140.5 | 135.7 | 85.49 | 83.85 | 87.77 | 85.7 | 86 ± 2 | 
CCOc1cc(OCC)cc(C(=O)O[C@@H]2CN3Cc4c(cc5c(c4OC)OCO5)[C@@]24C=C[C@H](OC)C[C@@H]34)c1 [28o, 11-O-(3,5-Diethoxybenzoyl)ambelline] |  |  |  |  |  |  |  | 10.9 | 0.0467 | 0.307 | 0.326 |  | 0.316 ± 0.013 | 97.15 | 52.09 | 65.61 | 51.07 | 51.54 | 56.07 | 56 ± 8 | 
COc1cc(C(=O)O[C@@H]2CN3Cc4c(cc5c(c4OC)OCO5)[C@@]24C=C[C@H](OC)C[C@@H]34)cc(OC)c1OC [28n, 11-O-(3,4,5-Trimethoxybenzoyl)ambelline] |  |  |  |  |  |  |  | 2.38 | 0.82 | 0.047 | 0.047 |  | 0.047 | 69.5 | 68.02 | 52.2 | 49.89 | 54.09 | 52.06 | 52 ± 2 | Huh-7 cell viability (Huh-7 cell line): cell viability was not affected at antiplasmodial-active concentrations; CELL CONFLUENCY (IC50 determination) (Huh-7 cell line; human, 46 h, 0.001 µM, pH 7): 120.661; CELL CONFLUENCY (IC50 determination) (Huh-7 cell line; human, 46 h, 0.01 µM, pH 7): 126.131; CELL CONFLUENCY (IC50 determination) (Huh-7 cell line; human, 46 h, 0.04 µM, pH 7): 117.957; CELL CONFLUENCY (IC50 determination) (Huh-7 cell line; human, 46 h, 0.07 µM, pH 7): 115.634; CELL CONFLUENCY (IC50 determination) (Huh-7 cell line; human, 46 h, 0.1 µM, pH 7): 118.616; CELL CONFLUENCY (IC50 determination) (Huh-7 cell line; human, 46 h, 0.5 µM, pH 7): 106.144; IC50 ([2]; Huh-7, abstract, read-out: IC50 against hepatic stage of Plasmodium infection): 0.047 µM; IC50 ([2]; Huh-7, mean, unit (Table 1: µM), read-out: Antiplasmodial activity - Ø IC50): 0.047 µM; INFECTION (IC50 determination) ([2]; at 0.001 µM): 132.557; INFECTION (IC50 determination) ([2]; at 0.01 µM): 115.469; INFECTION (IC50 determination) ([2]; at 0.04 µM): 56.6784; INFECTION (IC50 determination) ([2]; at 0.07 µM): 26.9184; INFECTION (IC50 determination) ([2]; at 0.1 µM): 17.5104; INFECTION (IC50 determination) ([2]; at 0.5 µM): 2.9184
COc1c2c(cc3c1OCO3)[C@]13C=C[C@H](OC)C[C@H]1N(C2)C[C@H]3OC(=O)c1cccc(C)c1 [28f, 11-O-(3-Methylbenzoyl)ambelline] |  |  |  |  |  |  |  | 15.1 | 0.306 | 0.185 | 0.41 | 0.357 | 0.317 ± 0.118 | 118 | 93.35 | 76.64 | 74.3 | 74.27 | 75.07 | 75 ± 1 | 
COc1ccc(C(=O)O[C@@H]2CN3Cc4c(cc5c(c4OC)OCO5)[C@@]24C=C[C@H](OC)C[C@@H]34)cc1 [28k, 11-O-(4-Methoxybenzoyl)ambelline] | 107.6 | 76.48 | 87.88 | 88.02 | 89.64 | 85.98 | 88 ± 2 | 19.9 | 0.872 | 0.446 | 0.456 |  | 0.451 ± 0.007 |  |  |  |  |  |  |  | 

From paper PMC10056443, “Derivatives of Amaryllidaceae Alkaloid Ambelline as Selective Inhibitors of Hepatic Stage of Plasmodium berghei Infection In Vitro” (Pharmaceutics, 2023)
